From publication PMC4405350, “From Broad-Spectrum Biocides to Quorum Sensing Disruptors and Mussel Repellents: Antifouling Profile of Alkyl Triphenylphosphonium Salts” (PLoS ONE, 2015) come the findings set out here.

In data set [1] the test system is C. violaceum CVO26. In words: C. violaceum CVO26 growth inhibition (OD625). As to conditions: Chromobacterium violaceum, CVO26, 18 h, read-out: IC50 (Growth inhibition). The format is cell-based. Here is the method: The reporter strain C. violaceum CVO26 (CECT 5999) was used to screen the ability of the products to interfere with violacein production, a QS-regulated phenotype. C. violaceum CVO26 is a mini-Tn5 mutant that depends on an exogenous source of autoinducer (AI) (N-hexanoyl homoserine lactone, HHL) for violacein production. C. violaceum CVO26 was cultured in LB broth (Sigma-Aldrich) supplemented with 25 μg ml^-1 kanamycin. Inocula were prepared by dilution (1:100) of an overnight culture of the reporter strain [49]. One hundred microliters of inoculum with HHL (Sigma-Aldrich, 6 μM) or without the AI were added to 96-well plates containing 100 μl of the appropriate dilutions of the test products in LB. Thus, two sets of plates were prepared. One set of plates (without HHL) was used to evaluate the effect of the products on bacterial growth, whereas the other set of plates (with HHL) was used to evaluate their effect on violacein production. Both sets of plates were incubated at 30 °C with agitation (150 rpm) for 18 h.
Growth inhibition was quantified in the first batch of plates by re-suspending bacterial pellets and measuring the OD625. From the second batch of plates violacein was extracted and quantified. Briefly, the plates were dried overnight (60 °C) and violacein was re-solubilized by the addition of 200 μl of DMSO. The plates were shaken for 3 h and then the OD590 was determined.
Indeed, the inhibitions observed in violacein production for long alkyl chains (10–18, 20) were clearly correlated to the biocidal effect exerted by these compounds, with ‘therapeutic ratios’ (IC50 for growth inhibition/IC50 for violacein inhibition) around 1, in general (Table 2). Note that, as the length of the hydrocarbon chain becomes shorter, this ratio increased (8–9). […] To evaluate these compounds in further detail, […] stock solutions were prepared […] to avoid the use of high concentrations of DMSO in the bioassays. […] Serial two-fold dilutions (500–3.9 μM) were assayed. Consequently, the highest amount of DMSO used in the assay was 0.25% (v/v). […] Growth inhibitory effects are only observed at 500 μM, particularly for compound 7 (Fig 6D).

The test system of data set [2] is Aspergillus sp. As to the kind of experiment: Marine-derived fungi growth inhibition (OD405). The class given is cell-based. As to conditions: Aspergillus, 120 h; growth inhibition, 5 days, 26 °C; read-out: IC50 Aspergillus sp. Here is the method: (§1) All the biological assays were run by triplicate. […] For the active products, serial dilutions were performed to calculate the half-maximal inhibitory concentrations (IC50) or the minimal inhibitory concentrations (MIC). Unless otherwise stated, the test concentrations were 100, 50, 25, 10, 5, 2.5, 1, 0.5 and 0.1 μM. Dose-response curves were adjusted with GraphPad Prism 5 software using a four-parameter non-linear regression model.
(§2) Three strains of marine-derived fungi were kindly provided by Dr. Á. Trigos (University of Veracruz, Mexico). The strains were isolated from reef organisms collected from the Veracruz Reef System and identified as Aspergillus sp., Fusarium sp. and Alternaria sp..
(§3) Fungal strains were cultured in Potato-Dextrose Agar (PDA) supplemented with filtered seawater (FSW) (50% v/v) at 26 °C for 5 days prior to experiments. […] Briefly, fungal inocula were prepared by addition of 5 ml of sterile saline solution to the cultures. Gently swabbing released conidia. […] The plates were incubated for 5 days at 26 °C. The calculation of the half-maximal inhibitory concentrations (IC50) was performed using OD405 as endpoint.

Data set [3] deals with Alternaria sp. In words: Marine-derived fungi growth inhibition (OD405). The format is cell-based. As to conditions: Alternaria, 120 h; growth inhibition, 5 days, 26 °C; read-out: IC50 Alternaria sp. On the procedure: as §1, §2, §3
Data set [4] relates to Pseudoalteromonas atlantica CECT 579. In words: Marine bacteria growth inhibition (broth microdilution, OD625). The format is cell-based. As to conditions: Pseudoalteromonas atlantica, CECT579; growth inhibition, 24 h, 30 °C, three replicates; read-out: IC50 P. atlantica. On the procedure: as §1
(§4) Growth inhibition was assessed in Marine Broth (Conda) according to CLSI guidelines for broth microdilution susceptibility testing. The incubation time was 24 h and the incubation temperature was 30 °C.

Data set [5] relates to Vibrio alginolyticus CECT 521. The description is as above. As to conditions: Vibrio alginolyticus, CECT521; growth inhibition, 24 h, 30 °C, three replicates; read-out: IC50 V. alginolyticus. The class given is cell-based. On the procedure:
as §1, §4

Data set [6] has as its system Cellulophaga lytica CECT 5014. The data set is described as above. Conditions: Cellulophaga lytica, CECT5014; growth inhibition, 24 h, 30 °C, three replicates; read-out: IC50 C. lytica. The format is cell-based. Here is the method:
as §1, §4

Data set [7] relates to Shewanella algae CECT 5021. Described as above. The class given is cell-based. Conditions: Shewanella algae, CECT5021; growth inhibition, 24 h, 30 °C, three replicates; read-out: IC50 S. algae. Here is the method: as §1, §4
Data set [8] concerns Cobetia marina CECT 4278. The description is as above. Conditions: Cobetia marina, CECT4278; growth inhibition, 24 h, 30 °C, three replicates; read-out: IC50 C. marina. The class given is cell-based. On the procedure:
as §1, §4

The subject of data set [9] is Vibrio anguillarum CECT 4347. Described as above. The class given is cell-based. As to conditions: Vibrio anguillarum, CECT4347; growth inhibition, 24 h, 30 °C, three replicates; read-out: IC50 V. anguillarum. Here is the method: as §1, §4
In data set [10] the test system is Artemia salina nauplii. As to the kind of experiment: in vivo. As to conditions: instar I nauplii, 24 h, 28 °C. On the procedure:
as §1
Artemia salina cysts (INVE Aquaculture, Ghent, Belgium) were hatched in brackish water (30 ‰ salinity) at 28 °C with aeration and under constant light. Newly hatched instar I nauplii were harvested for bioassays. Tests were conducted in 96-well plates (15±5 nauplii per well, test volume = 200 μl). The number of dead and alive individuals was recorded after 24 h of incubation at 28 °C and 24-hour photoperiod.

The subject of data set [11] is Gayralia oxysperma spores. As to the kind of experiment: Macroalgal spore germination inhibition. The class given is cell-based. Conditions: 6 days, 19±1 °C. On the procedure:
as §1
To evaluate the effect of the phosphonium salts on the germination of macroalgal spores, Gayralia oxysperma (Kützing) K.L.Vinogradova was selected as model organism. G. oxysperma (Ulotrichales, Chlorophyta) is a cosmopolitan member of the Ulvophyceae. Unlike Ulva species, which produce biflagellate male and female gametes, as well as quadriflagellate spores, G. oxysperma only produces biflagellate spores. This is an advantage as bioassays can be conducted straightforwardly without the need to distinguish between gamete-producing and zoospore-producing plants. […] Fresh fertile fragments were selected and placed in Petri dishes. Spores were then released in Von Stosch Solution (VSS) by the osmotic method. Bioassays were conducted in flat-bottom 96-well plates as described by Chambers and co-workers, with slight modifications. Each well was filled with 50 μl of the appropriate dilution of the products in VSS to which 50 μl of spore inoculum (ca. 2 x 10^5 spores ml^-1) were added. Plates were incubated at 19±1 °C for 6 days. After the incubation time, the bottom of each well was examined for the presence of germinated spores with an inverted microscope. A spore was considered as germinated when the germ tube was visible. The MIC was recorded as the lowest concentration inhibiting spore germination.

The structures appear in SMILES notation. A value given as a limit tells only on which side of the number the result lay.

Usually IC50 stands for the concentration that inhibits the measured activity by half. Regarding `CCCCCCCCCCCCCCCCCCC[P+](c1ccccc1)(c1ccccc1)c1ccccc1` [Compound 18], the IC50 in data set [1] was 40.1 µM; in data set [2], 19.6 µM; in data set [3], 5.3 µM; in [4], more than 100 µM; in data set [5], more than 100 µM; in [6], 5.3 µM. The IC50 in [7], in data set [8] and in data set [9] was more than 100 µM throughout. In addition, in data set [10], the “IC50 A. salina (LC50)” value is less than 0.5 µM. In addition, the “MIC G. oxysperma (lowest concentration inhibiting spore germination)” value in data set [11] was more than 100 µM.

`CCCCCCCCCC[P+](c1ccccc1)(c1ccccc1)c1ccccc1` [Compound 10]: the IC50 in data set [1] worked out at 11.9 µM; in data set [2], 11.7 µM; in data set [3], 5.2 µM; in [4] it was 5.2 µM; in [5], 35.5 µM; in data set [6], 2.6 µM. Further, the values for the IC50 in [7], in [8] and in data set [9] were 10.4 µM, 8 µM and 18.3 µM, respectively. Moreover, in [10], the “IC50 A. salina (LC50)” value was found to be 1.4 µM. For the same molecule, the “MIC G. oxysperma (lowest concentration inhibiting spore germination)” value in [11] is 50 µM.

Regarding `CCCCCCCCCCCCCCC[P+](c1ccccc1)(c1ccccc1)c1ccccc1` [Compound 15], the IC50 in data set [1] worked out at 2.6 µM; in data set [2], 5.2 µM; in [3] it was 2.9 µM; in [4], 2.9 µM; in data set [5], 5.6 µM; in [6], 1.9 µM. Besides, the figures for the IC50 in [7], in data set [8] and in data set [9] were 3.8 µM, 5.5 µM and 2.7 µM, respectively. Moreover, the “IC50 A. salina (LC50)” value in [10] was found to be 2.8 µM. Besides, the “MIC G. oxysperma (lowest concentration inhibiting spore germination)” value in data set [11] turned out to be 50 µM.

Take `c1ccc([P+](CCCCCCCCCCCC[P+](c2ccccc2)(c2ccccc2)c2ccccc2)(c2ccccc2)c2ccccc2)cc1` [Compound 20]: the concentration for half-maximal inhibition (IC50) came out at 12.8 µM in [1]; 0.6 µM in [2]; 0.3 µM in data set [3]; 0.8 µM in data set [4]; 93.5 µM in data set [5]; 1.1 µM in [6]. Also, the IC50 came out at 2.2 µM in data set [7], 7.3 µM in data set [8] and 8 µM in [9]. The “IC50 A. salina (LC50)” value in data set [10] worked out at 3.0 µM. In data set [11], the “MIC G. oxysperma (lowest concentration inhibiting spore germination)” value was 5 µM.

For `CCCCN[P+](c1ccccc1)(c1ccccc1)c1ccccc1` [Compound 5], the IC50 in data set [1] is more than 500 µM; in data set [2], more than 100 µM; in data set [3] it was more than 100 µM; in data set [4], more than 100 µM; in data set [5], more than 100 µM; in data set [6], 41.8 µM. In addition, the IC50 in data set [7], in data set [8] and in data set [9] was more than 100 µM each time. Moreover, the “IC50 A. salina (LC50)” value in [10] is 17.2 µM. Also, in data set [11], the “MIC G. oxysperma (lowest concentration inhibiting spore germination)” value stood at 100 µM.

On to `CCCCCCCCCCCCCCCC[P+](c1ccccc1)(c1ccccc1)c1ccccc1` [Compound 16], for which the IC50 in [1] is 3.2 µM; in [2], 5.2 µM; in [3] it was 1.4 µM; in data set [4], 6.8 µM; in data set [5], 16.9 µM; in data set [6], 1.5 µM. For the same molecule, the half-inhibitory concentration (IC50) was 5.4 µM in [7], 9.9 µM in data set [8] and 5.3 µM in data set [9]. In [10], the “IC50 A. salina (LC50)” value came out at 1.8 µM. Further, in [11], the “MIC G. oxysperma (lowest concentration inhibiting spore germination)” value stood at 50 µM.

Turning to `C/C=C/C[P+](c1ccccc1)(c1ccccc1)c1ccccc1` [Compound 3], the IC50 is more than 500 µM in [1]; more than 100 µM in data set [2]; more than 100 µM in data set [3]; 9.5 µM in data set [4]; more than 100 µM in data set [5]; 73.2 µM in [6]. The IC50 in data set [7], in data set [8] and in [9] was more than 100 µM each time. In addition, in data set [10], the “IC50 A. salina (LC50)” value was more than 100 µM. Moreover, the “MIC G. oxysperma (lowest concentration inhibiting spore germination)” value in data set [11] was more than 100 µM.

As for `COC(=O)CCC[P+](c1ccccc1)(c1ccccc1)c1ccccc1` [Compound 2], the IC50 in data set [1], in [2], in data set [3], in [4], in [5] and in [6] was more than 100 µM throughout. The IC50 in [7], in [8] and in data set [9] was more than 100 µM each time. Further, the “IC50 A. salina (LC50)” value in data set [10] was more than 100 µM. In data set [11], the “MIC G. oxysperma (lowest concentration inhibiting spore germination)” value was more than 100 µM.

Take `BrCCCC[P+](c1ccccc1)(c1ccccc1)c1ccccc1` [Compound 4]: the half-maximal inhibitory concentration (IC50) is more than 500 µM in data set [1]; more than 100 µM in [2]; more than 100 µM in [3]; 26.4 µM in [4]; more than 100 µM in [5]; more than 100 µM in [6]. For the same molecule, the IC50 in data set [7], in data set [8] and in data set [9] was more than 100 µM in each case. For the same molecule, in data set [10], the “IC50 A. salina (LC50)” value worked out at 92.7 µM. In addition, in data set [11], the “MIC G. oxysperma (lowest concentration inhibiting spore germination)” value was more than 100 µM.

For the molecule `BrC(Br)[P+](c1ccccc1)(c1ccccc1)c1ccccc1` [Compound 1], the IC50 in data set [1], in data set [2], in data set [3], in data set [4], in data set [5] and in [6] was more than 100 µM throughout. Besides, the IC50 in data set [7], in data set [8] and in data set [9] was more than 100 µM each time. Also, the “IC50 A. salina (LC50)” value in data set [10] is more than 100 µM. For the same molecule, the “MIC G. oxysperma (lowest concentration inhibiting spore germination)” value in [11] was 100 µM.
